Laboratory results as given in ChEMBL document CHEMBL4334438, “Discovery of novel glycogen synthase kinase-3α inhibitors: Structure-based virtual screening, preliminary SAR and biological evaluation for treatment of acute myeloid leukemia” (Eur J Med Chem, 2019).
Active and inactive are the calls of the source. The rule behind the calls is not given here.

Assays:
[1] = molecular target: Glycogen synthase kinase-3 beta (Homo sapiens, UniProt P49841, H350L); assay: Inhibition of human GSK-3beta H350L mutant (2 to end residues) at 10 uM using phospho GS2 peptide as substrate after 40 mins by [gamma-33ATP] radiometric assay
[2] = organism: Homo sapiens; assay: Selectivity index, ratio of IC50 for inhibition of human GSK-3beta H350L mutant (2 to end residues) to IC50 for inhibition of human GSK-3alpha S449A mutant (2 to end residues)
[3] = molecular target: T1, Glycogen synthase kinase-3 alpha (Homo sapiens, UniProt P49840); assay: Inhibition of human GSK-3alpha S449A mutant (2 to end residues) using phospho GS2 peptide as substrate after 40 mins in presence of [gamma-33ATP] by scintillation counting method
[4] = tested on: Glycogen synthase kinase-3 alpha (Homo sapiens), P49840 [UNDEFINED MUTATION]; assay: Inhibition of human GSK-3alpha S449A mutant (2 to end residues) at 10 uM using phospho GS2 peptide as substrate after 40 mins in presence of [gamma-33ATP] by scintillation counting method relative to control
[5] = molecular target: GSK-3beta (H350L mutant) (Homo sapiens, UniProt P49841, H350L); assay: Inhibition of human GSK-3beta H350L mutant (2 to end residues) at 10 uM using phospho GS2 peptide as substrate after 40 mins by [gamma-33ATP] radiometric assay relative to control; settings: human GSK-3beta H350L mutant enzyme (residues 2 to end), probe phospho GS2 peptide
[6] = molecular target: T2, Glycogen synthase kinase-3 beta (Homo sapiens, UniProt P49841); assay: Inhibition of human GSK-3beta by mobility shift micro-fluidic assay
[7] = tested on: HL-60; assay: Antiproliferative activity against human HL60 cells assessed as reduction in viability at 1 to 30 uM after 3 days by SRB assay; type: functional, cell-based
[8] = tested on: NB-4; assay: Induction of monocytic differentiation in human NB4 cells assessed as increase in CD14 positive cells at 30 uM after 6 days by FITC staining based flow cytometry analysis; type: functional, cell-based
[9] = molecular target: T1, Glycogen synthase kinase-3 alpha; assay: Inhibition of human GSK-3alpha using YRRAAVPPSPSLSRHSSPHQ(pS)EDEEE as substrate measured in presence of [gamma-33P]ATP by radiometric assay
[10] = molecular target: T2, Glycogen synthase kinase-3 beta; assay: Inhibition of human GSK-3beta using YRRAAVPPSPSLSRHSSPHQ(pS)EDEEE as substrate measured in presence of [gamma-33P]ATP by radiometric assay
[11] = tested on: NB-4; assay: Induction of monocytic differentiation in human NB4 cells assessed as increase in CD11c-APC positive cells at 30 uM after 6 days by flow cytometry analysis; type: functional, cell-based
[12] = tested on: HL-60; assay: Induction of monocytic differentiation in human HL60 cells assessed as increase in CD14-FITC positive cells at 30 uM after 6 days by flow cytometry analysis; type: functional, cell-based
[13] = tested on: NB-4; assay: Antiproliferative activity against human NB4 cells assessed as reduction in viability at 1 to 30 uM after 3 days by SRB assay; type: functional, cell-based
[14] = Activation of wnt/beta-catenin signalling pathway in human NB4 cells assessed as stabilization of beta-catenin at 30 uM after 24 hrs by Western blot analysis; type: cell-based
[15] = tested on: NB-4; assay: Induction of monocytic differentiation in human NB4 cells assessed as increase in CD11b-APC-Cy7 positive cells at 30 uM after 6 days by flow cytometry analysis; type: functional, cell-based
[16] = Activation of wnt/beta-catenin signalling pathway in human HL60 cells assessed as stabilization of beta-catenin at 30 uM after 24 hrs by Western blot analysis; type: cell-based
[17] = tested on: HL-60; assay: Induction of monocytic differentiation in human HL60 cells assessed as increase in CD11b-APC-Cy7 positive cells at 30 uM after 6 days by flow cytometry analysis; type: functional, cell-based
[18] = tested on: HL-60; assay: Induction of monocytic differentiation in human HL60 monocytic assessed as increase in CD11c-APC positive cells at 30 uM after 6 days by flow cytometry analysis; type: functional, cell-based
[19] = tested on: HL-60; assay: Inhibition of colony formation in human HL60 cells at 30 uM preincubated for 72 hrs followed by compound washout and measured after 7 to 10 days; type: functional, cell-based
[20] = tested on: HL-60; assay: Induction of granulocytic differentiation in human HL60 cells assessed as increase in CD11b-APC-Cy7 positive cells at 10 to 30 uM after 6 days by flow cytometry analysis; type: functional, cell-based
[21] = tested on: HL-60; assay: Induction of granulocytic differentiation in human HL60 cells assessed as increase in CD14-FITC positive cells at 10 to 30 uM after 6 days by flow cytometry analysis; type: functional, cell-based
[22] = tested on: NB-4; assay: Induction of granulocytic differentiation in human NB4 cells assessed as increase in CD14 positive cells at 10 to 30 uM after 6 days by FITC staining based flow cytometry analysis; type: functional, cell-based
[23] = tested on: NB-4; assay: Induction of granulocytic differentiation in human NB4 cells assessed as increase in CD11b-APC-Cy7 positive cells at 10 to 30 uM after 6 days by flow cytometry analysis; type: functional, cell-based
[24] = tested on: HL-60; assay: Induction of granulocytic differentiation in human HL60 granulocytic assessed as increase in CD11c-APC positive cells at 10 to 30 uM after 6 days by flow cytometry analysis; type: functional, cell-based
[25] = tested on: NB-4; assay: Induction of granulocytic differentiation in human NB4 cells assessed as increase in CD11c-APC positive cells at 10 to 30 uM after 6 days by flow cytometry analysis; type: functional, cell-based
[26] = tested on: NB-4; assay: Inhibition of colony formation in human NB4 cells at 30 uM preincubated for 72 hrs followed by compound washout and measured after 7 to 10 days; type: functional, cell-based

T1 sequence (P49840 whole entry): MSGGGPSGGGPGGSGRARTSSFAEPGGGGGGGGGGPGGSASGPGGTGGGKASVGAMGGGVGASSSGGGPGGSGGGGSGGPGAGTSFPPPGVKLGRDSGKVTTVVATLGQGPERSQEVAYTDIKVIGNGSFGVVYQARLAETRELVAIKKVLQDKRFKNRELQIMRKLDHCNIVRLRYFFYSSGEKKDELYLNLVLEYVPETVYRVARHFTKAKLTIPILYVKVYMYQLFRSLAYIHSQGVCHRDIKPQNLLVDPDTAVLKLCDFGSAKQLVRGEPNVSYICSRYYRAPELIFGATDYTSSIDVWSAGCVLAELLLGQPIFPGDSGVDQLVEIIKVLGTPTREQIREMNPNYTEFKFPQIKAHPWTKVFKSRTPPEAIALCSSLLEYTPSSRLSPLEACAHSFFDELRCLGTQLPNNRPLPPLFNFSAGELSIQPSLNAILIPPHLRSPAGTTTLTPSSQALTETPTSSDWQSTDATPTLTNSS
T2 sequence (P49841 whole entry): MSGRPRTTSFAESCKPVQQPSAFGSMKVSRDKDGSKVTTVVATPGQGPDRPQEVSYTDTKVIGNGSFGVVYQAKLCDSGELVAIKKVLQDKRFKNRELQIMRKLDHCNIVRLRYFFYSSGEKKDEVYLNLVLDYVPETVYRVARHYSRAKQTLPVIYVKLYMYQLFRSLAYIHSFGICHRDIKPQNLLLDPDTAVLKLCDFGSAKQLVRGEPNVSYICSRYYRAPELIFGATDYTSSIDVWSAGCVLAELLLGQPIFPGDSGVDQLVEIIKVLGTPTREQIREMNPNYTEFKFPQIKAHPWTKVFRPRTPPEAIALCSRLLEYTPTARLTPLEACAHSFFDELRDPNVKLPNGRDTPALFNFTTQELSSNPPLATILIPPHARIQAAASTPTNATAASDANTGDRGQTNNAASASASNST
GSK-3beta (H350L mutant), sequence (P49841 whole entry, looked up, stated change not applied, the tested form may be a part): as the sequence (P49841 whole entry) above
Glycogen synthase kinase-3 beta (Homo sapiens, UniProt P49841, H350L), sequence (P49841 whole entry, looked up, stated change not applied): as the sequence (P49841 whole entry) above
Glycogen synthase kinase-3 alpha (Homo sapiens), P49840 [UNDEFINED MUTATION], sequence (P49840 whole entry, looked up, stated change not applied, the tested form may be a part): as the sequence (P49840 whole entry) above

Work on `Cc1ccc(-c2ccc(/C=C3/NC(=S)NC3=O)o2)c(Br)c1` yielded an IC50 [1] of 862 nM, a Ratio IC50 [2] of 1.95 and an IC50 [3] of 440 nM. The inhibition [4] was 65 to 90% and the inhibition at 40 min, 10 µM [5] was 62%.

Work on `CC[C@@]1(c2ccccc2)C2=C(CC(C)(C)CC2=O)Nc2n[nH]cc21` yielded an IC50 [6] of 515 nM.

For `c1ccc(-c2noc(CSc3nnc(-c4ccncc4)o3)n2)cc1`, the Activity [7] was “Active”, the Activity [8] was “Active” and the IC50 [9] was 451 nM. The IC50 [10] was 521 nM, the Activity [11] was “Active” and the Activity [12] was “Active”. For the same compound, the Activity [13] was “Active”, the Activity [14] was “Active” and the Activity [15] was “Active”. The Activity [16] was “Active”, the Activity [17] was “Active” and the Activity [18] was “Active”.

For `N=C1NC(=O)/C(=C\c2ccc(-c3ccc(Cl)c(Cl)c3)o2)S1`, the IC50 [1] was 576 nM, the Ratio IC50 [2] was 1.9 and the IC50 [3] was 300 nM. It also gave an inhibition [4] of 80 to 81% and an inhibition at 40 min, 10 µM [5] of 75%.

For `CC1=C(/C=C/C(C)=C/C=C/C(C)=C/C(=O)O)C(C)(C)CCC1`, the Activity [7] was “Active”, the inhibition [19] was “Active” and the Activity [20] was “Active”. The Activity [21] was “Active”, the Activity [22] was “Active” and the Activity [23] was “Active”. The Activity [24] was “Active”, the Activity [13] was “Active” and the Activity [25] was “Active”. The inhibition [26] was “Active”.
